Test results reported in patent publication US20260262643A1, “HERBICIDAL BENZOXAZINES” (FMC CORPORATION, priority 2022, published 2026).

Legend:
ryegrass, Italian [1] = assay: Test C preemergence; type: in vivo, Lolium multiflorum
Summary of the method: (§1)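 Seeds in loam–sand blend received preemergence directed soil spray of test chemicals in non-phytotoxic solvent with surfactant; postemergence treatment was applied at one- to two-leaf stage (2–10 cm). After 10 days in greenhouse, injury rated visually versus untreated controls, 0 (no effect) to 100 (complete control).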

corn [2] = assay: Test C preemergence; type: in vivo, Zea mays
Summary of the method: as §1

rice = assay: Test D flooded paddy test; type: in vivo, Oryza sativa; conditions: 250 g ai/ha, applied to paddy water, visual rating after 13 to 14 days, scale 0 to 100 (0 no effect, 100 complete control)
Summary of the method: (§2)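 Plants at the 2-leaf stage were grown in pots flooded to 3 cm, and compound was applied directly into the paddy water, with depth kept throughout. After 13–14 days in a greenhouse, injury was rated visually against untreated controls on a 0–100 scale (100 = complete control); a dash means not tested.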

blackgrass [3] = assay: Test C postemergence; type: in vivo, Alopecurus myosuroides; conditions: 10 days, 0 to 100 scale (0 no effect, 100 complete control)
Summary of the method: as §1

oat, wild [4] = assay: Test C preemergence; type: in vivo, Avena fatua
Summary of the method: as §1

ducksalad = assay: Test D flooded paddy test; type: in vivo, Heteranthera limosa; conditions: 250 g ai/ha, applied to paddy water, visual rating after 13 to 14 days, scale 0 to 100 (0 no effect, 100 complete control)
Summary of the method: as §2

galium = assay: Test C postemergence; type: in vivo, Galium aparine; conditions: 10 days, 0 to 100 scale (0 no effect, 100 complete control)
Summary of the method: as §1

green foxtail [5] = assay: Test C preemergence; type: in vivo, Setaria viridis
Summary of the method: as §1

ragweed [6] = assay: Test C preemergence; type: in vivo, Ambrosia artemisiifolia
Summary of the method: as §1

wheat [7] = assay: Test C postemergence; type: in vivo, Triticum aestivum; conditions: 10 days, 0 to 100 scale (0 no effect, 100 complete control)
Summary of the method: as §1

kochia [8] = assay: Test C preemergence; type: in vivo, Bassia scoparia
Summary of the method: as §1

ragweed [9] = assay: Test C postemergence; type: in vivo, Ambrosia artemisiifolia; conditions: 10 days, 0 to 100 scale (0 no effect, 100 complete control)
Summary of the method: as §1

pigweed, palmer [10] = assay: Test C postemergence; type: in vivo, Amaranthus palmeri; conditions: 10 days, 0 to 100 scale (0 no effect, 100 complete control)
Summary of the method: as §1

oat, wild [11] = assay: Test C postemergence; type: in vivo, Avena fatua; conditions: 10 days, 0 to 100 scale (0 no effect, 100 complete control)
Summary of the method: as §1

ryegrass, Italian [12] = assay: Test C postemergence; type: in vivo, Lolium multiflorum; conditions: 10 days, 0 to 100 scale (0 no effect, 100 complete control)
Summary of the method: as §1

blackgrass [13] = assay: Test C preemergence; type: in vivo, Alopecurus myosuroides
Summary of the method: as §1

barnyardgrass [14] = assay: Test D flooded paddy test; type: in vivo, Echinochloa crus-galli; conditions: 250 g ai/ha, applied to paddy water, visual rating after 13 to 14 days, scale 0 to 100 (0 no effect, 100 complete control)
Summary of the method: as §2

soybean [15] = assay: Test C preemergence; type: in vivo, Glycine max
Summary of the method: as §1

green foxtail [16] = assay: Test C postemergence; type: in vivo, Setaria viridis; conditions: 10 days, 0 to 100 scale (0 no effect, 100 complete control)
Summary of the method: as §1

pigweed, palmer [17] = assay: Test C preemergence; type: in vivo, Amaranthus palmeri
Summary of the method: as §1

sedge, umbrella = assay: Test D flooded paddy test; type: in vivo, Cyperus difformis; conditions: 250 g ai/ha, applied to paddy water, visual rating after 13 to 14 days, scale 0 to 100 (0 no effect, 100 complete control)
Summary of the method: as §2

barnyardgrass [18] = assay: Test C postemergence; type: in vivo, Echinochloa crusgalli; conditions: 10 days, 0 to 100 scale (0 no effect, 100 complete control)
Summary of the method: as §1

horseweed = assay: Test C postemergence; type: in vivo, Erigeron canadensis; conditions: 10 days, 0 to 100 scale (0 no effect, 100 complete control)
Summary of the method: as §1

corn [19] = assay: Test C postemergence; type: in vivo, Zea mays; conditions: 10 days, 0 to 100 scale (0 no effect, 100 complete control)
Summary of the method: as §1

soybean [20] = assay: Test C postemergence; type: in vivo, Glycine max; conditions: 10 days, 0 to 100 scale (0 no effect, 100 complete control)
Summary of the method: as §1

wheat [21] = assay: Test C preemergence; type: in vivo, Triticum aestivum
Summary of the method: as §1

kochia [22] = assay: Test C postemergence; type: in vivo, Bassia scoparia; conditions: 10 days, 0 to 100 scale (0 no effect, 100 complete control)
Summary of the method: as §1

barnyardgrass [23] = assay: Test C preemergence; type: in vivo, Echinochloa crusgalli
Summary of the method: as §1

[24] = 500 g ai/ha, preemergence, 0 to 100 scale (0 no effect, 100 complete control)
[25] = Preemergence, 125 g ai/ha, 0 to 100 scale, 0 no effect, 100 complete control

COC[C@H]1CN(C(=O)c2cc(-n3cnc(C4CCC4)n3)cc3c2OCCO3)c2cccc(Cl)c2O1 [Compound 380]
Ryegrass, Italian plant response rating (ryegrass, Italian [1]; [24]): 80
Plant response rating, Ryegrass, Italian (ryegrass, Italian [1]; [25]): 70
Corn plant response rating (corn [2]; [24]): 50
Plant response rating, Corn (corn [2]; [25]): 0
Plant response rating, Rice (Flood) (rice): 10
Plant response rating, Blackgrass (blackgrass [3]; 500 g ai/ha, postemergence): 70
Plant response rating, Blackgrass (blackgrass [3]; Postemergence, 125 g ai/ha): 20
Oat, Wild plant response rating (oat, wild [4]; [24]): 40
Plant response rating, Oat, Wild (oat, wild [4]; [25]): 20
Plant response rating, Ducksalad (Flood) (ducksalad): 30
Plant response rating, Galium (galium; 500 g ai/ha, postemergence): 100
Plant response rating, Galium (galium; Postemergence, 125 g ai/ha): 100
Foxtail, Green plant response rating (green foxtail [5]; [24]): 100
Plant response rating, Foxtail, Green (green foxtail [5]; [25]): 50
Ragweed plant response rating (ragweed [6]; [24]): 90
Plant response rating, Ragweed (ragweed [6]; [25]): 70
Plant response rating, Wheat (wheat [7]; 500 g ai/ha, postemergence): 20
Plant response rating, Wheat (wheat [7]; Postemergence, 125 g ai/ha): 10
Kochia plant response rating (kochia [8]; [24]): 90
Plant response rating, Kochia (kochia [8]; [25]): 0
Plant response rating, Ragweed (ragweed [9]; 500 g ai/ha, postemergence): 100
Plant response rating, Ragweed (ragweed [9]; Postemergence, 125 g ai/ha): 90
Plant response rating, Pigweed, Palmer (pigweed, palmer [10]; 500 g ai/ha, postemergence): 100
Plant response rating, Pigweed, Palmer (pigweed, palmer [10]; Postemergence, 125 g ai/ha): 90
Plant response rating, Oat, Wild (oat, wild [11]; 500 g ai/ha, postemergence): 0
Plant response rating, Oat, Wild (oat, wild [11]; Postemergence, 125 g ai/ha): 0
Plant response rating, Ryegrass, Italian (ryegrass, Italian [12]; 500 g ai/ha, postemergence): 60
Plant response rating, Ryegrass, Italian (ryegrass, Italian [12]; Postemergence, 125 g ai/ha): 40
Blackgrass plant response rating (blackgrass [13]; [24]): 30
Plant response rating, Blackgrass (blackgrass [13]; [25]): 0
Plant response rating, Barnyardgrass (Flood) (barnyardgrass [14]): 55
Soybean plant response rating (soybean [15]; [24]): 90
Plant response rating, Soybean (soybean [15]; [25]): 50
Plant response rating, Foxtail, Green (green foxtail [16]; 500 g ai/ha, postemergence): 80
Plant response rating, Foxtail, Green (green foxtail [16]; Postemergence, 125 g ai/ha): 20
Pigweed, Palmer plant response rating (pigweed, palmer [17]; [24]): 100
Plant response rating, Pigweed, Palmer (pigweed, palmer [17]; [25]): 100
Plant response rating, Sedge, Umbrella (Flood) (sedge, umbrella): 40
Plant response rating, Barnyardgrass (barnyardgrass [18]; 500 g ai/ha, postemergence): 50
Plant response rating, Barnyardgrass (barnyardgrass [18]; Postemergence, 125 g ai/ha): 20
Plant response rating, Horseweed (horseweed; 500 g ai/ha, postemergence): 60
Plant response rating, Horseweed (horseweed; Postemergence, 125 g ai/ha): 60
Plant response rating, Corn (corn [19]; 500 g ai/ha, postemergence): 50
Plant response rating, Corn (corn [19]; Postemergence, 125 g ai/ha): 10
Plant response rating, Soybean (soybean [20]; 500 g ai/ha, postemergence): 100
Plant response rating, Soybean (soybean [20]; Postemergence, 125 g ai/ha): 100
Wheat plant response rating (wheat [21]; [24]): 10
Plant response rating, Wheat (wheat [21]; [25]): 0
Plant response rating, Kochia (kochia [22]; 500 g ai/ha, postemergence): 100
Plant response rating, Kochia (kochia [22]; Postemergence, 125 g ai/ha): 100
Barnyardgrass plant response rating (barnyardgrass [23]; [24]): 80
Plant response rating, Barnyardgrass (barnyardgrass [23]; [25]): 20
